Test systems include 786-0 renal; DU-145 prostate; HT29 colon; IGROV1 ovarian; MDA-MB-231 breast; NCI-H23 lung; NCI/ADR-RES ovarian; OVCAR-4 ovarian; RXF 393 renal; SK-MEL-2 melanoma; SK-MEL-5 melanoma; SN12C renal; UACC-257 melanoma.
Holding throughout (assay): NCI-60 cell line screen, 48 h

Where “and” joins values, the source holds several entries; their conditions need not be identical. Identical values can stand only once.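 All cell lines were grown in 96-well plates and treated with compound for 48 hours. GI50: concentration for 50% inhibition of growth. Definition used: TGI = concentration required for complete inhibition of growth.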

In the case of `O=[N+]([O-])c1cccc2nc3ccccc3c(NCCCCCNc3c4ccccc4nc4cccc([N+](=O)[O-])c34)c12`, the TGI was 0.0666 µM and 0.0332 µM with 786-0 renal; 0.0929 µM in the experiment on DU-145 prostate; 0.0922 µM in the experiment with HT29 colon; 0.506 µM and 1.2 µM in the experiment on IGROV1 ovarian; 0.0927 µM with MDA-MB-231 breast; 0.185 µM with NCI-H23 lung. In addition, the TGI in the experiment on NCI/ADR-RES ovarian was 2.19 µM and 1.28 µM; in the experiment with OVCAR-4 ovarian, 0.738 µM; in the experiment with RXF 393 renal, 0.111 µM; with SK-MEL-2 melanoma, 0.285 µM; in the experiment on SK-MEL-5 melanoma, 0.255 µM and 0.149 µM; in the experiment with SN12C renal, 0.0777 µM and 0.0827 µM. Moreover, the TGI with UACC-257 melanoma is 0.393 µM and 1.23 µM. Also, the GI50 in the experiment with IGROV1 ovarian was 0.127 µM; in the experiment with NCI/ADR-RES ovarian it was 0.297 µM; with SK-MEL-5 melanoma it was 0.018 µM; in the experiment with UACC-257 melanoma, 0.0619 µM.
With `COc1ccc2nc3c(c(N)c2c1)C1CCC3C1(C)C` (centres undefined), the TGI is 59.2 µM with 786-0 renal; more than 100 µM in the experiment on DU-145 prostate; more than 100 µM with HT29 colon; more than 100 µM in the experiment on IGROV1 ovarian; 68.3 µM in the experiment on MDA-MB-231 breast; more than 100 µM in the experiment on NCI-H23 lung. In addition, the TGI is more than 100 µM in the experiment with NCI/ADR-RES ovarian; more than 100 µM in the experiment on OVCAR-4 ovarian; 81.5 µM with RXF 393 renal; 67.1 µM with SK-MEL-2 melanoma; 25.7 µM in the experiment with SK-MEL-5 melanoma; more than 100 µM in the experiment with SN12C renal. This compound gave a TGI with UACC-257 melanoma of 40.5 µM.
With `COC1(OC)CCc2c(sc3ncnc(Nc4cccc(Br)c4)c23)C1`, the TGI is more than 100 µM in the experiment on 786-0 renal; 53.9 µM in the experiment with DU-145 prostate; 45.1 µM with HT29 colon; more than 100 µM in the experiment with IGROV1 ovarian; more than 100 µM in the experiment with MDA-MB-231 breast; more than 100 µM with NCI-H23 lung. Also, the TGI was 76.3 µM in the experiment on NCI/ADR-RES ovarian; more than 100 µM in the experiment on OVCAR-4 ovarian; 62.4 µM in the experiment on RXF 393 renal; more than 100 µM with SK-MEL-2 melanoma; more than 100 µM with SK-MEL-5 melanoma; more than 100 µM in the experiment with SN12C renal. The TGI in the experiment on UACC-257 melanoma is more than 100 µM.
In the case of `CC(SC(=S)N1CCOCC1)C(=O)Nc1nnc(-c2ccc(Cl)cc2)o1` (centres undefined), the TGI in the experiment on 786-0 renal, with DU-145 prostate, in the experiment with HT29 colon, in the experiment on IGROV1 ovarian, in the experiment with MDA-MB-231 breast and in the experiment on NCI-H23 lung was more than 100 µM each time. For the same compound, the TGI in the experiment on NCI/ADR-RES ovarian, in the experiment with OVCAR-4 ovarian, with RXF 393 renal, in the experiment with SK-MEL-2 melanoma, in the experiment with SK-MEL-5 melanoma and with SN12C renal was more than 100 µM in each case. Moreover, in the experiment with UACC-257 melanoma, the TGI was more than 100 µM.
For `COc1ccccc1C1c2cc3c(cc2OC2(OC)COC(=O)C12)OCO3` (centres undefined), the TGI in the experiment with 786-0 renal was 72.1 µM; in the experiment on DU-145 prostate, 69.4 µM; in the experiment on HT29 colon, 22.9 µM; in the experiment on IGROV1 ovarian, more than 100 µM; in the experiment on MDA-MB-231 breast, more than 100 µM; with NCI-H23 lung, more than 100 µM. Moreover, the TGI in the experiment on NCI/ADR-RES ovarian is more than 100 µM; in the experiment on OVCAR-4 ovarian, more than 95.9 µM; in the experiment on RXF 393 renal, 44.2 µM; in the experiment with SK-MEL-2 melanoma, 55.6 µM; with SK-MEL-5 melanoma, 59.3 µM; in the experiment on SN12C renal it was more than 100 µM. Besides, the TGI in the experiment on UACC-257 melanoma was more than 100 µM.
Turning to `Cc1cc(C)c(-c2no/c(=N\S(=O)(=O)c3ccc(Cl)cc3)o2)c(C)c1`, the TGI in the experiment with 786-0 renal, in the experiment on DU-145 prostate, with HT29 colon, in the experiment with IGROV1 ovarian, in the experiment with MDA-MB-231 breast and in the experiment with NCI-H23 lung was more than 100 µM in each case. The TGI is more than 100 µM in the experiment with NCI/ADR-RES ovarian; more than 100 µM in the experiment on OVCAR-4 ovarian; more than 100 µM in the experiment with RXF 393 renal; more than 100 µM with SK-MEL-2 melanoma; 68 µM in the experiment with SK-MEL-5 melanoma; more than 100 µM with SN12C renal. Further, the TGI in the experiment with UACC-257 melanoma was more than 100 µM.
In the case of `Cc1cccc2sc(NC(=O)NS(=O)(=O)n3cnc4ccccc43)nc12`, the TGI in the experiment with 786-0 renal is more than 100 µM; in the experiment with DU-145 prostate, more than 100 µM; in the experiment with HT29 colon, more than 100 µM; with IGROV1 ovarian, 51.1 µM; in the experiment with MDA-MB-231 breast, 93.3 µM; with NCI-H23 lung it was 43.6 µM. Besides, the TGI was more than 100 µM in the experiment with NCI/ADR-RES ovarian; more than 100 µM in the experiment with OVCAR-4 ovarian; 49.1 µM in the experiment on RXF 393 renal; 35.6 µM in the experiment on SK-MEL-2 melanoma; 56.3 µM in the experiment on SK-MEL-5 melanoma; more than 100 µM in the experiment with SN12C renal. The same compound had a TGI with UACC-257 melanoma of 74.8 µM.
For `O=S(=O)(/N=C(\NO)Nc1ccc(Cl)cc1)c1cc(C(F)(F)F)cc(C(F)(F)F)c1`, the TGI in the experiment on 786-0 renal was 33.4 µM; with DU-145 prostate it was 44.1 µM; with HT29 colon, 34.3 µM; in the experiment on IGROV1 ovarian, 31.6 µM; in the experiment with MDA-MB-231 breast, 37.2 µM; in the experiment on NCI-H23 lung, 36.6 µM. The TGI was determined as 58.1 µM with NCI/ADR-RES ovarian; 31.6 µM in the experiment with OVCAR-4 ovarian; 41 µM with RXF 393 renal; 32.7 µM in the experiment on SK-MEL-2 melanoma; 32.8 µM in the experiment on SK-MEL-5 melanoma; 32.1 µM in the experiment with SN12C renal. The compound also displayed a TGI with UACC-257 melanoma of 42.4 µM.
For the compound `CC(=O)NC1C(OCC(=O)NCCNc2ccc([N+](=O)[O-])c3[nH]c4ccccc4c(=O)c23)C(O)C(CO)OC1(C)OCc1ccccc1` (centres undefined), the TGI in the experiment with 786-0 renal, in the experiment on DU-145 prostate, with HT29 colon, with IGROV1 ovarian, in the experiment on MDA-MB-231 breast and with NCI-H23 lung was more than 100 µM throughout. Besides, the TGI in the experiment on NCI/ADR-RES ovarian, in the experiment with OVCAR-4 ovarian, in the experiment with RXF 393 renal, in the experiment on SK-MEL-2 melanoma, with SK-MEL-5 melanoma and in the experiment with SN12C renal was more than 100 µM in each case. For the same compound, the TGI in the experiment with UACC-257 melanoma was more than 100 µM.
Regarding `O=C(CSCC(=O)N/N=C/c1cccc(O)c1)N/N=C/c1cccc(O)c1`, the TGI in the experiment on 786-0 renal, with DU-145 prostate, in the experiment with HT29 colon, in the experiment with IGROV1 ovarian, with MDA-MB-231 breast and with NCI-H23 lung was more than 100 µM throughout. Also, the TGI in the experiment with NCI/ADR-RES ovarian, in the experiment with OVCAR-4 ovarian, in the experiment on RXF 393 renal, in the experiment with SK-MEL-2 melanoma, in the experiment with SK-MEL-5 melanoma and in the experiment with SN12C renal was more than 100 µM in each case. In the experiment on UACC-257 melanoma, this compound registered a TGI of more than 100 µM.

The values are drawn from PubChem BioAssay (NCI).
